Test results taken from the Kinase Knowledgebase extract (Sharma et al. 2016).

target: MAPK14 (UniProt Q16539); assay: Inhibition of MAPK14 Kinase Activity
Sequence (Q16539 whole entry, looked up): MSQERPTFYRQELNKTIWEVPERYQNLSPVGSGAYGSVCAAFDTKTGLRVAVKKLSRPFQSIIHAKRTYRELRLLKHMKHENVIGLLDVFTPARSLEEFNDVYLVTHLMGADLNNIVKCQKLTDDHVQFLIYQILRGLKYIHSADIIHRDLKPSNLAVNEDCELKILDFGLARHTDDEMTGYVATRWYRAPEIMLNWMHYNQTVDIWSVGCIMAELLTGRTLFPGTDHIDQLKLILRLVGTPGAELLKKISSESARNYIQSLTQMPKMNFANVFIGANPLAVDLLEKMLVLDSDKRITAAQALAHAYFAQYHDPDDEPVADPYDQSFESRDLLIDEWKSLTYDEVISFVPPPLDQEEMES

IC50, ≤ 5 µM:
CC(C)S(=O)(=O)n1c(N)nc2ccc(-c3c(-c4ccccc4F)nc(-c4c[nH]nn4)n3C3CC3)cc21
CC(C)S(=O)(=O)n1c(N)nc2ccc(-c3[nH]n(-c4ccc(C(F)(F)F)cc4)c(=O)c3-c3ccccc3)cc21
Cc1ccccc1-c1[nH]c(-c2ccc(F)cc2)nc1-c1ccc2nc(N)n(S(=O)(=O)C(C)C)c2c1
CC(C)S(=O)(=O)n1c(N)nc2ccc(-c3[nH]n(-c4ccccc4)c(=O)c3-c3ccccc3)cc21
CC(C)S(=O)(=O)n1c(N)nc2ccc(-c3nc(C4CCN(CCC(F)(F)F)CC4)[nH]c3-c3ccccc3)cc21
CC(C)S(=O)(=O)n1c(N)nc2ccc(-c3nc(C4CCN(C(=O)OCc5ccccc5)CC4)[nH]c3-c3ccccc3)cc21
CC(C)S(=O)(=O)n1c(N)nc2ccc(-c3nc(-c4c(Cl)cccc4Cl)[nH]c3-c3ccc(F)cc3)cc21
CC(C)S(=O)(=O)n1c(N)nc2ccc(-c3nc(-c4cccc(OCCC5=CC=CNC=C5)c4)[nH]c3-c3ccccc3)cc21
CCOC(=O)/C=C/c1nc(-c2ccc3nc(N)n(S(=O)(=O)C(C)C)c3c2)c(-c2ccccc2)[nH]1
CC(C)S(=O)(=O)n1c(N)nc2ccc(-c3nc(-c4ccc(F)cc4F)[nH]c3-c3ccc(F)cc3F)cc21
CC(C)S(=O)(=O)n1c(N)nc2ccc(-c3nc(-c4ccc(NS(C)(=O)=O)cc4)[nH]c3-c3ccccc3)cc21
CC(C)c1nc(-c2ccc3nc(N)n(S(=O)(=O)C(C)C)c3c2)c(-c2ccccc2)[nH]1
CC(C)S(=O)(=O)n1c(N)nc2ccc(-c3nc(C4CC4)[nH]c3-c3ccc(F)cc3)cc21
CC(C)CN1CCC(c2nc(-c3ccc4nc(N)n(S(=O)(=O)C(C)C)c4c3)c(-c3ccc(F)cc3)[nH]2)CC1
CC(C)S(=O)(=O)n1c(N)nc2ccc(-c3nc(-c4cccs4)[nH]c3-c3ccccc3)cc21
CNc1ccc(-c2nc(-c3ccc4nc(N)n(S(=O)(=O)C(C)C)c4c3)c(-c3ccccc3)[nH]2)c(F)c1
CC(C)S(=O)(=O)n1c(N)nc2ccc(-c3c(-c4ccccc4)ncn3C3CCOCC3)cc21
CC(C)S(=O)(=O)n1c(N)nc2ccc(-c3[nH]n(-c4ccc([N+](=O)[O-])cc4)c(=O)c3-c3ccc(F)cc3)cc21
CC(C)S(=O)(=O)n1c(N)nc2ccc(-c3nc[nH]c3-c3ccccc3F)cc21
CC(C)S(=O)(=O)n1c(N)nc2ccc(-c3sc(-c4ccccc4)nc3-c3ccccc3)cc21
CC(C)S(=O)(=O)n1c(N)nc2ccc(-c3c(-c4ccc(F)cc4F)ncn3C3CC3)cc21
CC(C)S(=O)(=O)n1c(N)nc2ccc(-c3nc(C(F)(F)F)[nH]c3-c3ccccc3)cc21
Nc1nc2ccc(-c3c(-c4ccccc4)ncn3C3CCCCC3)cc2s1
CC(C)S(=O)(=O)n1c(N)nc2ccc(-c3nc(-c4c(F)cccc4F)oc3-c3ccccc3)cc21
CC(C)S(=O)(=O)n1c(N)nc2ccc(-c3c(-c4ccccc4)ncn3C3CCC(N)CC3)cc21 (stereo unspecified)
Nc1nc2ccc(-c3nc(-c4c(F)cccc4F)[nH]c3-c3ccccc3)cc2[nH]1
CC(C)S(=O)(=O)n1c(N)nc2ccc(-c3nc[nH]c3-c3cccc(F)c3)cc21
CC(C)S(=O)(=O)n1c(N)nc2ccc(-c3c(-c4ccccc4)ncn3[C@H]3CC[C@H](O)CC3)cc21
CC(C)S(=O)(=O)n1c(N)nc2ccc(-c3nn[nH]c3-c3ccccc3)cc21
CC(C)S(=O)(=O)n1c(N)nc2ccc(-c3c(-c4ccccc4F)nc(Br)n3C3CCCCC3)cc21
CC(C)S(=O)(=O)n1c(Cc2ccccc2N)nc2ccc(-c3[nH]cnc3-c3ccccc3)cc21
CC(C)S(=O)(=O)n1c(N)nc2ccc(-c3nc(COCc4ccccc4)[nH]c3-c3ccccc3)cc21
CC(C)S(=O)(=O)n1c(N)nc2ccc(-c3c(-c4ccccc4)ncn3C3CCC(NC(=O)OC(C)(C)C)CC3)cc21 (stereo unspecified)
Cc1nc(-c2ccc3nc(N)n(S(=O)(=O)C(C)C)c3c2)c(-c2ccccc2)[nH]1
CC(C)S(=O)(=O)n1c(N)nc2ccc(-c3nc(C4CCN(C(=O)OC(C)(C)C)CC4)[nH]c3-c3ccccc3)cc21
CC(C)S(=O)(=O)n1c(N)nc2ccc(-c3nc(-c4ccncc4)[nH]c3-c3ccccc3)cc21
CC(C)S(=O)(=O)n1c(N)nc2ccc(-c3nc(C4CCN(Cc5ccccn5)CC4)[nH]c3-c3ccccc3)cc21
CC(C)S(=O)(=O)n1c(N)nc2ccc(-c3c(-c4cccc(F)c4)ncn3[C@H]3CC[C@H](O)CC3)cc21
CC(C)S(=O)(=O)n1c(N)nc2ccc(-c3nc(C4CCN(CCO)CC4)[nH]c3-c3ccccc3)cc21
CC(C)n1cnc(-c2ccc(F)cc2)c1-c1ccc2nc(N)n(S(=O)(=O)C(C)C)c2c1
CC(C)S(=O)(=O)n1c(N)nc2ccc(-c3nc(-c4ccccc4C(F)(F)F)[nH]c3-c3ccccc3)cc21
CC(C)S(=O)(=O)n1c(N)nc2ccc(-c3nc(C4CCNCC4)[nH]c3-c3ccccc3)cc21
CC(C)S(=O)(=O)n1c(N)nc2ccc(-c3c(-c4ccccc4F)nc(N=[N+]=[N-])n3C3CC3)cc21
CC(C)S(=O)(=O)n1c(N)nc2ccc(-c3nc(C4CCN(CCN(C)C)CC4)[nH]c3-c3ccccc3)cc21
CC(C)S(=O)(=O)n1c(N)nc2ccc(-c3c(-c4ccccc4)ncn3CCCN3CCOCC3)cc21
CCN1CCC(c2nc(-c3ccc4nc(N)n(S(=O)(=O)C(C)C)c4c3)c(-c3ccccc3)[nH]2)CC1
